{"source": "patent US9371527B2", "about": "“Compositions and methods related to protein displacement therapy for myotonic distrophy” (University of Rochester, priority 2006, dated 2016)", "key": {"[1]": {"system": "recombinant MBNL1 protein with (CUG)109 RNA", "assay": "Gel shift assay of MBNL1 with (CUG)109 RNA in presence of CAG25 morpholino", "assay_type": "binding, human", "conditions": "increasing amounts of CAG25 morpholino", "text": "Interaction of recombinant MBNL1 protein with (CUG)109 RNA was examined by gel shift assay, in the presence of increasing amounts of CAG25 morpholino.\nAlso disclosed herein are methods involving the interaction of soluble, fluorescently-labeled MBNL1 protein with poly(CUG)^109 tethered at the surface of a microtiter plate. Different commercial microtiter plates for capacity to bind in vitro transcribed poly(CUG)^109 and background activity (non-specific binding of labeled MBNL1). For tethering poly(CUG)^109 to plates, a “capture” oligodeoxynucleotide (ODN) complementary to the A-rich 3′ terminus of the poly(CUG)^109 transcript, labeled either with biotin or a reactive group at the 5′ end for attachment to the plate (shown in FIG. 3C in the case of biotin) was used. […] Next, the concentration of capture ODN that saturates binding sites (12.5 pmoles/100 μl/well) and the concentration of poly(CUG)^109 that saturates the capture ODN (of 5 pmole added per well, 0.5 pmole was bound to capture ODN) were determined. Additionally, conditions for fluorescence labeling of MBNL1 protein via conjugation between primary amines on protein and fluorescein-EX dyes (Molecular Probes) were determined. The detection threshold and range of linearity was determined for labeled protein in gels and microplates (FIG. 2B). […]"}, "[2]": {"system": "MBNL1 protein in ribonuclear foci", "assay": "MBNL1 immunofluorescence after CAG25 morpholino injection into tibialis anterior", "assay_type": "in vivo, HSA^LR transgenic mice", "conditions": "intramuscular injection + electroporation, vs saline contralateral", "procedure": "The morpholino was compromised entirely of CAG repeats and was 25 nucleotides in length (CAG25). CAG25 morpholino dissolved in phosphate buffered saline was injected into tibialis anterior muscle of HSA^LR transgenic mice, followed by electroporation to facilitate entry into muscle cells. The contralateral tibialis anterior muscle was injected with saline alone, followed by electroporation. The distribution of MBNL1 in tibialis anterior was determined by immunofluorescence with anti-MBNL1 antibody A2764. In muscle injected with saline, MBNL1 was sequestered in ribonuclear foci (nuclei are counterstained with DAPI)."}, "[3]": {"system": "SERCA1 alternative splicing", "assay": "RT-PCR of SERCA1 alternative splicing after CAG25 morpholino", "assay_type": "in vivo, HSA^LR transgenic mice", "conditions": "3 weeks following CAG25 injection, tibialis anterior, 4 mice", "text": "Morpholino-treated muscle is indicated by “+”. Results from tibialis anterior in the opposite hindlimb, injected with saline alone, are indicated by “−”. The side of morpholino injection was randomly determined, and this assignment remained blinded until after the splicing analysis was completed. Het. dupl. indicates a heteroduplex PCR product."}, "[4]": {"system": "ZASP alternative splicing", "assay": "RT-PCR of ZASP alternative splicing after CAG25 morpholino", "assay_type": "in vivo, HSA^LR transgenic mice", "conditions": "3 weeks following CAG25 injection, tibialis anterior", "text": "Morpholino-treated muscle is indicated by “+”. Results from tibialis anterior in the opposite hindlimb, injected with saline alone, are indicated by “−”. The side of morpholino injection was randomly determined, and this assignment remained blinded until after the splicing analysis was completed."}, "[5]": {"system": "ClC-1 exon 7a alternative splicing", "assay": "RT-PCR of ClC-1 alternative splicing after CAG25 morpholino", "assay_type": "in vivo, HSA^LR transgenic mice", "conditions": "tibialis anterior, vs saline contralateral", "text": "Adult wild-type (WT) mice show low levels of exon 7a inclusion. In HSA^LR transgenic mice, the fraction of ClC-1 splice products that include exon 7a is increased. Inclusion of exon 7a causes a frame shift and creates a premature termination codon that truncates most of the ClC-1 coding sequence. Of note, transcripts that include exon 7a have accelerated degradation via nonsense mediated decay, therefore they are underrepresented at steady state and on this gel. The higher bands on the gel are other alternative splice products, as shown (Mankodi et al, Molecular Cell 10:35-44, 2002.) In HSA^LR transgenic mice, injection of CAG morpholino into tibialis anterior improved the defect of ClC-1 alternative splicing. Morpholino-treated muscle is indicated by “+”. Results from tibialis anterior in the opposite hindlimb, injected with saline alone, are indicated by “−”."}, "ClC-1 chloride channel": {"system": "ClC-1 chloride channel", "assay": "ClC-1 immunofluorescence after CAG25 morpholino", "assay_type": "in vivo, HSA^LR transgenic mice", "conditions": "3 weeks following injection", "text": "Immunofluorescence for ClC-1 chloride channel is shown in sections of tibialis anterior muscle from HSA^LR transgenic mice. Muscle fibers show mosaic expression of ClC-1 in HSA^LR muscle injected with saline. Some of these fibers are completely lacking in ClC-1 protein."}, "HSA^LR transgenic mice": {"system": "HSA^LR transgenic mice", "assay": "Electromyography of myotonia after CAG25 morpholino", "assay_type": "in vivo", "conditions": "p<0.001", "text": "FIG. 17 uses Electromyography to show the improvement of myotonia at 3 and 6 weeks after injection of CAG25 morpholino into tibialis anterior of HSA^LR transgenic mice. Myotonia is a state of muscle hyperexcitability in which muscle fibers display repetitive action potentials. Myotonia in the HSA^LR transgenic mouse model of myotonic dystrophy is caused by abnormal regulation of alternative splicing for ClC-1 and subsequent reduction of chloride ion channels in muscle fibers. A parallel abnormality of ClC-1 alternative splicing exists in human myotonic dystrophy. […] For each mouse, CAG25 morpholino dissolved in saline was injected into tibialis anterior muscle of one hindlimb, whereas saline alone was injected into tibialis anterior on the opposite side. The side of morpholino injection was randomly assigned. Electromyography was performed by a blinded examiner Severity of myotonia was graded on a 4 point scale: 0=no myotonic, 1=occasional myotonic discharge (fewer than 25% of needle insertions), 2=abundant myotonic discharges (25-75% of needle insertions), and 3=florid myotonia (myotonic discharges in nearly every needle insertion)."}, "[6]": {"molecular_target": "T1, interaction of recombinant MBNL1 protein with (CUG)109 RNA (Homo sapiens, UniProt Q9NR56)", "T1 construct": "GST (with Prescission protease cleavage site) (N); made in house; host or cells: E. coli BL21(DE3)", "T1 sequence (Q9NR56 1-382 isoform Q9NR56-5)": "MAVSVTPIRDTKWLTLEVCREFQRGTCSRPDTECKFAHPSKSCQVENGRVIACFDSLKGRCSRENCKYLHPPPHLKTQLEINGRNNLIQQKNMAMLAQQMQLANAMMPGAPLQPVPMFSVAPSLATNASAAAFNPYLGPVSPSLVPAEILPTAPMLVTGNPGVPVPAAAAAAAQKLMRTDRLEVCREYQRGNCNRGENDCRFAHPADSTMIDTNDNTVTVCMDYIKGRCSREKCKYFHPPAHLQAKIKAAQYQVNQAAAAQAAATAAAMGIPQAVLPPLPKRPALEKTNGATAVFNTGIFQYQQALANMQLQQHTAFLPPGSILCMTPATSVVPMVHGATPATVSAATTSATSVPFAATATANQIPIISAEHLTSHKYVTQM", "assay": "Filter binding screening assay for inhibitors of MBNL1-(CUG)109 RNA interaction", "conditions": "compound+(CUG)109 RNA 5 minutes, then recombinant MBNL1 15 minutes, among 9 aminoglycoside compounds tested", "procedure": "The order of addition was compound+(CUG)109 RNA (incubate 5 minutes), followed by recombinant MBNL1 protein (15 minute incubation), followed by application to filter.\nNext, optimal conditions were defined (ionic-strength, monovalent cations, Mg^++ and other additions, temperature) for MBNL1-poly(CUG)^109 binding in solution. All forms of recombinant MBNL1 that were tested (GST fused or cleaved, full-length or truncation of C terminal hydrophobic region, 41 or 42 kD isoform) bind to poly(CUG)^109 at low protein concentration (FIG. 3, Kd values ˜10 nM), as determined by nitrocellulose filter binding assays. In this assay, nonspecific binding of labeled RNA to nitrocellulose was very low (<0.2% of maximal positive signal). As described below, disclosed herein are methods comprising a non-radioactive microtiter plate filter binding assay similar to the one used to examine binding activities of different forms of recombinant MBNL1 in FIG. 3.\nThe two components of this assay, fluorescence-labeled poly(CUG)^109 (FIG. 2B) and recombinant MBNL1 (FIG. 2A), have been developed and optimal conditions for MBNL1 binding to poly(CUG)^exp have been defined (50 mM Tris pH 8.0, 50 mM NaCl, 50 mM KCl, 1 mM Mg^++, 0.1 mM DTT) (see Preliminary Studies). Pilot binding assays have been carried out using nitrocellulose filters (FIG. 3A). […]"}, "(CUG)109 hairpins": {"system": "(CUG)109 hairpins", "assay": "Non-denaturing gel: PNA-CAG interaction with fluorescein-labeled (CUG)109 transcript", "assay_type": "binding", "conditions": "(CUG)109 10 nM, PNA 8-0.25 μM, 30 min", "procedure": "(§1) FIGS. 30A and 30B show protein displacement therapy with peptide nucleic acid (PNA) oligomers composed of CAG repeats.\n(§2) Previously it was shown that expanded CUG repeat RNA forms stable hairpin structures (Tian B, et al. RNA 2000; 6:79-87). […] This transcript was incubated 30 min with different concentrations (8, 4, 2, 1, 0.5, 0.25 μM) of PNAs containing different length of CAG repeat sequence (PNA-CAG-6, Nterm-CAGCAG; PNA-CAG-9, Nterm-CAGCAGCAG; PNA-CAG-12, Nterm-CAGCAGCAGCAG (SEQ ID NO: 14); or PNA-CAG-15, Nterm-CAGCAGCAGCAGCAG) (SEQ ID NO: 15). FIG. 30B provides a variation including 5 PNA concentrations (4, 2, 1, 0.5, 0.25 μM) and after additional 30 min incubation step with recombinant MBNL1 (200 nM). Lane “C” in each panel is a control showing migration of fluorescein-labeled (CUG)109 transcript without PNA or MBNL1. Rapid migration of this transcript is caused by hairpin formation. […] Lanes “C+” in panel “B” show controls that contain (CUG)109 transcript and MBNL1 protein without PNA. These lanes show diffuse smear of (CUG)109 transcript, due to formation of heterogenous high molecular weight RNA-protein complexes. Addition of PNA displaces the MBNL1 protein from expanded CUG repeat RNA, disrupting these complexes and reconstituting a sharp band of (CUG)109 transcript. […]"}, "[7]": {"system": "interaction of (CUG)109 RNA with MBNL1 protein", "assay": "Non-denaturing gel: PNA-CAG displacement of MBNL1 from (CUG)109 RNA", "assay_type": "binding", "conditions": "PNA 4-0.25 μM, then MBNL1 200 nM 30 min", "procedure": "as §1, §2"}, "[8]": {"molecular_target": "T2, interaction of CUG repeat RNA with recombinant MBNL1 protein (Homo sapiens, UniProt Q9NR56)", "T2 construct": "GST (with Prescission protease cleavage site) (N); made in house; host or cells: E. coli BL21(DE3)", "T2 sequence (Q9NR56 1-382 isoform Q9NR56-5)": "as above", "assay": "Fluorescence anisotropy assay for inhibitors of CUG repeat RNA-MBNL1 interaction", "assay_type": "binding", "conditions": "(CUG)36 transcript 2 nM, aminoglycoside 10 or 50 μM, MBNL1 100 nM", "procedure": "Fluorescein-labeled (CUG)36 transcript (2 nM) was incubated first with aminoglycoside compound (10 or 50 μM) and then with excess amount of recombinant MBNL1 protein (100 nM). To calculate the fraction of CUG repeat RNA that remains bound to MBNL1 protein (“% bound CUG^exp”, vertical axis), results are expressed as the percentage of maximal fluorescence anisotropy in assays from which aminoglycosides were omitted. […] Values are the average +/−SD from three measurements.\nFluorescein-labeled (CUG)36 RNA (2 nM) was incubated with MBNL1 protein (100 nM) and anisotropy was measured at time points ranging from 1 to 90 minutes. Increasing values for fluorescence anisotropy indicate interaction of fluorescein-labeled (CUG)36 transcript with MBNL1 protein.\nMBNL1 protein is known to bind CUG repeat RNAs that form a stable secondary structure (hairpin structure). Aminoglycoside antibiotics were examined to determine whether these compounds can inhibit the interaction of MBNL1 protein with CUG repeat RNA. Aminoglycosides were selected because they are known to bind structured RNA. […] To calculate the fraction of CUG repeat RNA that remains bound to MBNL1 protein (“% bound CUG^exp”, vertical axis), results are expressed as the percentage of maximal fluorescence anisotropy in assays from which aminoglycosides were omitted. […]"}}}
{"substance": "CAG25 morpholino: morpholino comprised entirely of CAG repeats, 25 nucleotides in length (antisense AGCAGCAGCAGCAGCAGCAGCAGCA; all phosphorodiamidate morpholino (PMO))", "values": [{"measurement": "inhibition of interaction of MBNL1-poly(CUG)^exp RNA in vitro", "setting": "[1]", "value": "inhibits the interaction"}, {"measurement": "distribution of MBNL1 in tibialis anterior nuclei", "setting": "[2]", "value": "more widely distributed throughout the nucleus"}, {"measurement": "SERCA1 alternative splicing", "setting": "[3]", "value": "improved the defect of SERCA1 alternative splicing"}, {"measurement": "ZASP alternative splicing", "setting": "[4]", "value": "improved regulation of alternative splicing for ZASP"}, {"measurement": "ClC-1 alternative splicing (exon 7a)", "setting": "[5]", "value": "improved the alternative splicing of ClC-1"}, {"measurement": "expression of ClC-1 chloride channel at the surface membrane", "setting": "ClC-1 chloride channel", "value": "increased expression ClC-1 protein at the surface membrane"}, {"measurement": "myotonia severity (EMG)", "setting": "HSA^LR transgenic mice; 3 weeks after injection", "value": "significant reduction of myotonia"}, {"measurement": "myotonia severity (EMG)", "setting": "HSA^LR transgenic mice; 6 weeks after injection", "value": "significant reduction of myotonia"}]}
{"substance": "gentamicin", "values": [{"measurement": "activity to inhibit formation of MBNL1-poly(CUG)^exp RNA-protein complexes", "setting": "[6]", "value": "highest activity"}]}
{"substance": "PNA-CAG-15: peptide nucleic acid Nterm-CAGCAGCAGCAGCAG (all peptide nucleic acid (PNA))", "values": [{"measurement": "interaction with expanded CUG repeat hairpin structures (gel migration of (CUG)109 transcript)", "setting": "(CUG)109 hairpins", "value": "can invade (CUG)109 hairpins"}, {"measurement": "inhibition of interaction of (CUG)109 RNA with MBNL1 protein", "setting": "[7]", "value": "inhibit the interaction of (CUG)109 RNA with MBNL1 protein"}]}
{"substance": "neomycin", "values": [{"measurement": "activity to inhibit formation of MBNL1-poly(CUG)^exp RNA-protein complexes", "setting": "[6]", "value": "highest activity"}, {"measurement": "inhibition of MBNL1 binding to CUG repeat RNA (% bound CUG^exp)", "setting": "[8]", "value": "strongest inhibition"}]}
{"substance": "PNA-CAG-12: peptide nucleic acid Nterm-CAGCAGCAGCAG (all peptide nucleic acid (PNA))", "values": [{"measurement": "interaction with expanded CUG repeat hairpin structures (gel migration of (CUG)109 transcript)", "setting": "(CUG)109 hairpins", "value": "can invade (CUG)109 hairpins"}, {"measurement": "inhibition of interaction of (CUG)109 RNA with MBNL1 protein", "setting": "[7]", "value": "inhibit the interaction of (CUG)109 RNA with MBNL1 protein"}]}
